Test results as given in US10519134B2, “Pyrazole compounds and methods of making and using same” (Lundbeck La Jolla Research Center, Inc., priority 2015, dated 2019).

Tests used:
MAGL [1] = target: T1, MAGL (Mus musculus, UniProt O35678); test: In vitro competitive activity-based protein profiling (mouse), MAGL gel band; assay type: biochemical; conditions: for IC50: mouse; for inhibition at 1 µM: read-out: MAGL % inh. 1 μM
T1 construct: Proteomes (mouse brain membrane fraction or cell lysates); from tissue; host or cells: mouse brain membrane fraction (or cell lysates)
T1 sequence (O35678 1-303): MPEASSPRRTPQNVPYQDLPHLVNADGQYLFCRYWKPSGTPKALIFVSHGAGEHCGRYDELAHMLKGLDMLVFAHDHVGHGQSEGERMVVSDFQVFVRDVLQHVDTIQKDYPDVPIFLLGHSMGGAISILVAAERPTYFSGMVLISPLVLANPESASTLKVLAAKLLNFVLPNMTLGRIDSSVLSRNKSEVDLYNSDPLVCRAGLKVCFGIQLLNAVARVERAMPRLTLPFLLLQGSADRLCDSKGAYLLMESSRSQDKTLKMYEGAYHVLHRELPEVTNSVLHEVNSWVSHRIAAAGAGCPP
Method in brief: (§1)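 Mouse brain membrane proteome or cell lysate (1.0 mg/mL total protein) was preincubated with varying inhibitor concentrations for 30 min at 37 °C, then labelled for 30 min at 37 °C with FP-Rh or HT-01 (50 μM stock in DMSO). Activity was read as fluorescent band intensity after SDS-PAGE.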

FAAH = target: T2, FAAH (Mus musculus, UniProt O08914); test: In vitro competitive activity-based protein profiling (mouse), FAAH gel band; assay type: biochemical; conditions: for IC50: mouse; for inhibition at 1 µM: read-out: FAAH % inh. 1 μM
T2 construct: Proteomes (mouse brain membrane fraction or cell lysates); from tissue; host or cells: mouse brain membrane fraction (or cell lysates)
T2 sequence (O08914 1-579): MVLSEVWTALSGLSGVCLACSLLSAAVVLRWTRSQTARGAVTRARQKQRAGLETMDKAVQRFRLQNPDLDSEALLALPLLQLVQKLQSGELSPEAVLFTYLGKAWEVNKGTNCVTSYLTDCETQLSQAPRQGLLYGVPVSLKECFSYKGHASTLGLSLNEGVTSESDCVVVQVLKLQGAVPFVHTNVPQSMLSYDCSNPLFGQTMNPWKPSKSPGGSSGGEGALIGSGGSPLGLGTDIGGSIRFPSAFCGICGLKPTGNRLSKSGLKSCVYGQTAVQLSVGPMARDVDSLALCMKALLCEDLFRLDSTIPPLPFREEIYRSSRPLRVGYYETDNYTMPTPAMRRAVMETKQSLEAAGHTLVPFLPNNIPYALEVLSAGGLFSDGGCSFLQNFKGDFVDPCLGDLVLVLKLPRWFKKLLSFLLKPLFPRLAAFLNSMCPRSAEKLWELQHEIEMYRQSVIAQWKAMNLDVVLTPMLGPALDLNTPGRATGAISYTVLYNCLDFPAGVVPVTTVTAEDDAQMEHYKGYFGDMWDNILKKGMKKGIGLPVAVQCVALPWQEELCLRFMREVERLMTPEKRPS
Method in brief: as §1

MAGL [2] = target: T1, MAGL; test: Mouse brain proteomes from inhibitor treated mice (oral gavage, sacrificed 4 h after administration); assay type: in vivo; conditions: read-out: MAGL % inh. 5 mg/kg
Experimental: Compounds are tested to assess their MAGL and other serine hydrolase activity using the following in vitro and in vivo assays.
Preparation of Mouse Brain Proteomes from Inhibitor Treated Mice.
Inhibitors were administered to wild-type C57Bl/6J by oral gavage in a vehicle of polyethylene glycol. Each animal was sacrificed 4 h following administration and brain proteomes were prepared and analyzed according to previously established methods (See Niphakis, M. J., et al. (2011) ACS Chem. Neurosci. and Long, J. Z., et al. Nat. Chem. Biol. 5:37-44)

| IC50 (MAGL [1]) [nM] | inhibition at 1 µM (MAGL [1]) [%] | IC50 (FAAH) [nM] | inhibition at 1 µM (FAAH) [%] | inhibition at 5 mg/kg (MAGL [2]) [%] | SMILES |
| --- | --- | --- | --- | --- | --- |
| ≤ 100 | ≥ 75 | 1000 to 10000 | 0 to 25 | 0 to 25 | CC(=O)Nc1ccn(C(=O)N2CCC3(CCCN3Cc3ccc(C(F)(F)F)cc3N3CC4CCC(C3)O4)CC2)n1 [Example 20, N-(1-(1-(2-(8-oxa-3-azabicyclo[3.2.1]octan-3-yl)-4-(trifluoromethyl)benzyl)-1,8-diazaspiro[4.5]decane-8-carbonyl)-1H-pyrazol-3-yl)acetamide] |
| 100 to 1000 | ≥ 75 | 1000 to 10000 | 0 to 25 | 25 to 50 | CCN1CCN(c2cc(C(F)(F)F)ccc2CN2CCCC23CCN(C(=O)n2ccc(NC(C)=O)n2)CC3)CC1 [Example 31, N-(1-(1-(2-(4-ethylpiperazin-1-yl)-4-(trifluoromethyl)benzyl)-1,8-diazaspiro[4.5]decane-8-carbonyl)-1H-pyrazol-3-yl)acetamide] |
| ≤ 100 | ≥ 75 | 1000 to 10000 | 0 to 25 | 0 to 25 | CC(=O)Nc1ccn(C(=O)N2CCC3(CCCN3Cc3ccc(C(F)(F)F)cc3OC3CCN(C4CC4)CC3)CC2)n1 [Example 81, N-(1-(1-(2-(1-cyclopropylpiperidin-4-yloxy)-4-(trifluoromethyl)benzyl)-1,8-diazaspiro[4.5]decane-8-carbonyl)-1H-pyrazol-3-yl)acetamide] |
| ≤ 100 | ≥ 75 | 1000 to 10000 | 0 to 25 | ≥ 75 | CCc1cc(CN2CCCC23CCN(C(=O)n2ccc(NC(C)=O)n2)CC3)ccc1F [Example 95, N-(1-(1-(3-ethyl-4-fluorobenzyl)-1,8-diazaspiro[4.5]decane-8-carbonyl)-1H-pyrazol-3-yl)acetamide] |
| ≤ 100 | ≥ 75 | 1000 to 10000 | 0 to 25 | 0 to 25 | CC(=O)Nc1ccn(C(=O)N2CCC3(CCCN3Cc3ccc(Cl)cc3N3CCC4(C3)CN(S(C)(=O)=O)C4)CC2)n1 [Example 38, N-(1-(1-(4-chloro-2-(2-(methylsulfonyl)-2,6-diazaspiro[3.4]octan-6-yl)benzyl)-1,8-diazaspiro[4.5]decane-8-carbonyl)-1H-pyrazol-3-yl)acetamide] |
| ≤ 100 | ≥ 75 | 1000 to 10000 | 0 to 25 | 0 to 25 | CC(=O)Nc1ccn(C(=O)N2CCN(Cc3ccc(Cl)cc3N3CCC4(C3)CN(S(C)(=O)=O)C4)CC2)n1 [Example 55, N-(1-(4-(4-chloro-2-(2-(methylsulfonyl)-2,6-diazaspiro[3.4]octan-6-yl)benzyl)piperazine-1-carbonyl)-1H-pyrazol-3-yl)acetamide] |
| ≤ 100 | ≥ 75 | 1000 to 10000 | 0 to 25 | 50 to 75 | CS(=O)(=O)Nc1ccn(C(=O)N2CCN(Cc3cccc(Cl)c3N3CC[C@H](CF)C3)CC2)n1 [Example 121, (S)-N-(1-(4-(3-chloro-2-(3-(fluoromethyl)pyrrolidin-1-yl)benzyl)piperazine-1-carbonyl)-1H-pyrazol-3-yl) methanesulfonamide] |
| ≤ 100 | ≥ 75 | 1000 to 10000 | 0 to 25 | 0 to 25 | CC(=O)Nc1ccn(C(=O)N2CCC3(CCCN3Cc3ccc(Cl)cc3N3CCC4(CCOCC4)C3)CC2)n1 [Example 9, N-(1-(1-(4-chloro-2-(8-oxa-2-azaspiro[4.5]decan-2-yl)benzyl)-1,8-diazaspiro[4.5]decane-8-carbonyl)-1H-pyrazol-3-yl)acetamide] |
| ≤ 100 | ≥ 75 | 1000 to 10000 | 0 to 25 | 0 to 25 | CC(=O)Nc1ccn(C(=O)N2CCN(Cc3ccc(C(F)(F)F)cc3N3CCN(S(C)(=O)=O)CC3)CC2)n1 [Example 41, N-(1-(4-(2-(4-(methylsulfonyl)piperazin-1-yl)-4-(trifluoromethyl)benzyl)piperazine-1-carbonyl)-1H-pyrazol-3-yl)acetamide] |
| ≤ 100 | ≥ 75 | 1000 to 10000 | 0 to 25 | 0 to 25 | CC(=O)Nc1ccn(C(=O)N2CCC3(CCCN3Cc3ccc(N4CCCC4)c(C(F)(F)F)c3)CC2)n1 [Example 102, N-(1-(1-(4-(pyrrolidin-1-yl)-3-(trifluoromethyl)benzyl)-1,8-diazaspiro[4.5]decane-8-carbonyl)-1H-pyrazol-3-yl)acetamide] |
| ≤ 100 | ≥ 75 | 1000 to 10000 | 0 to 25 | 0 to 25 | CC(=O)Nc1ccn(C(=O)N2CCN(Cc3ccc(C(F)(F)F)cc3Oc3cncnc3)CC2)n1 [Example 73, N-(1-(4-(2-(pyrimidin-5-yloxy)-4-(trifluoromethyl)benzyl)piperazine-1-carbonyl)-1H-pyrazol-3-yl)acetamide] |
| ≤ 100 | ≥ 75 | 1000 to 10000 | 0 to 25 | 25 to 50 | CC(=O)Nc1ccn(C(=O)N2CCN(Cc3ccc(C(F)(F)F)cc3N3CCN(C4CC4)CC3)CC2)n1 [Example 47, N-(1-(4-(2-(4-cyclopropylpiperazin-1-yl)-4-(trifluoromethyl)benzyl)piperazine-1-carbonyl)-1H-pyrazol-3-yl)acetamide] |
| ≤ 100 | ≥ 75 | 1000 to 10000 | 0 to 25 | 0 to 25 | CC(=O)Nc1ccn(C(=O)N2CCN(Cc3ccc(C(F)(F)F)cc3N3CCC4(CC3)CCN(S(C)(=O)=O)C4)CC2)n1 [Example 43, N-(1-(4-(2-(2-(methylsulfonyl)-2,8-diazaspiro[4.5]decan-8-yl)-4-(trifluoromethyl)benzyl)piperazine-1-carbonyl)-1H-pyrazol-3-yl)acetamide] |
| ≤ 100 | ≥ 75 | 1000 to 10000 | 0 to 25 | 0 to 25 | CC(=O)Nc1ccn(C(=O)N2CCC3(CCCN3Cc3ccc(Cl)c(N4CCCC4)c3)CC2)n1 [Example 104, N-(1-(1-(4-chloro-3-(pyrrolidin-1-yl)benzyl)-1,8-diazaspiro[4.5]decane-8-carbonyl)-1H-pyrazol-3-yl)acetamide] |
| ≤ 100 | ≥ 75 | 1000 to 10000 | 0 to 25 | 0 to 25 | CC(=O)Nc1ccn(C(=O)N2CCC3(CCCN3Cc3ccc(Cl)cc3N3CCC(F)CC3)CC2)n1 [Example 18, N-(1-(1-(4-chloro-2-(4-fluoropiperidin-1-yl)benzyl)-1,8-diazaspiro[4.5]decane-8-carbonyl)-1H-pyrazol-3-yl)acetamide] |
| ≤ 100 | ≥ 75 | 1000 to 10000 | 0 to 25 | 0 to 25 | CC(=O)Nc1ccn(C(=O)N2CCN(Cc3cc(OCC(=O)N4CCCC4)cc(C(F)(F)F)c3)CC2)n1 [Example 80, N-(1-(4-(3-(2-oxo-2-(pyrrolidin-1-yl)ethoxy)-5-(trifluoromethyl)benzyl)piperazine-1-carbonyl)-1H-pyrazol-3-yl)acetamide] |
| ≤ 100 | ≥ 75 | 1000 to 10000 | 0 to 25 | 25 to 50 | CC(=O)Nc1ccn(C(=O)N2CCN(Cc3ccc(Cl)cc3N3CCOCC3)CC2)n1 [Example 6, N-(1-(4-(4-chloro-2-morpholinobenzyl)piperazine-1-carbonyl)-1H-pyrazol-3-yl)acetamide] |
| ≤ 100 | ≥ 75 | 1000 to 10000 | 0 to 25 | 50 to 75 | CS(=O)(=O)Nc1ccn(C(=O)N2CCN(Cc3cccc(Cl)c3N3CCC4(CCOCC4)C3)CC2)n1 [Example 290, N-(1-(4-(3-chloro-2-(8-oxa-2-azaspiro[4.5]decan-2-yl)benzyl)piperazine-1-carbonyl)-1H-pyrazol-3-yl) methanesulfonamide] |
